Data: US20240058318A1, “DEGRADING PKCB1 TO TREAT CANCER” (Mayo Foundation for Medical Education and Research, priority 2020, published 2024)
Entries after “also recorded” stand apart in the source; their conditions may differ. Each block holds one compound with its values, some of them ahead of it.

How the values were obtained:
[1] = tested on: MCF7AC1 cells; assay: CV proliferation assay, ER+ MCF7AC1; format: cell-based
Method: (§1) Cell proliferation rates were determined using crystal violet assays. One thousand cells per well were plated in 96 well tissue culture plates and treated the following day with a bifunctional compound or control for 7 days in replicates of 8. Cells were fixed with 25% glutaraldehyde for 10 minutes with shaking, washed 5 times with distilled water, stained with a 1% crystal violet solution (solubilized in 25% methanol) for 10 minutes, washed again 5 times and allowed to dry. De-staining was performed using […] sodium citrate in 50% ethanol followed by quantification using a 96 well spectrophotometer set at an absorbance of 550 nm.
as §1, with “using CV” for “using crystal violet”, “assays. Two” for “assays. One”, “thousand (2000) or 4000” for “thousand”, “for 6” for “for 7”, “of 6.” for “of 8.”

[2] = tested on: Rb-proficient (MDAMB231) and Rb-deficient (BT549 and MDAMB436) TNBC cells; assay: CV proliferation assay, TNBC cells (statements across lines); format: cell-based; settings: for inhibition of growth of TNBC cells: MDAMB231, BT549, MDAMB436, CV assay; for induction of apoptosis: MDAMB231 and BT549 cells (FIG. 4A and TABLE 1)
Method: as §1
as §1, with “using CV” for “using crystal violet”, “assays. Two” for “assays. One”, “thousand (2000) or 4000” for “thousand”, “for 6” for “for 7”, “of 6.” for “of 8.”

[3] = tested on: PKCβ1, E2F1, and Cyclin D1; assay: Western blot, BT549 and MDAMB436 cells (Example 6); format: cell-based; settings: 1 μM, 24, 48, 72 hours
Method: TNBC BT549 and MDAMB436 cells were cultured in phenol-red free DMEM/F12 medium supplemented with 10% fetal bovine serum (FBS) and 1% AA. On day 1, cells were plated at a density of 2×10^5 BT549 cells or 4×10^5 MDAMB436 cells in a 6-well plate (two wells per treatment). The next day, cells were treated with DMSO, 1 μM Pr-9 (positive control), 1 μM Pr-9-1, 1 μM Pr-9-4, or 1 μM ENDX (negative control). Radioimmunoprecipitation Assay (RIPA) protein lysates were collected 24, 48, and 72 hours after treatment.
For western blot analysis, […] of protein lysates were run on Criterion precast 10% Bis-Tris gel, transferred to PVDF membrane, incubated in TBST-5% milk for one hour, and then incubated overnight with PKCβ1 (SC8049, mouse, 1:200), E2F1 (SC251, mouse, 1:250), Cyclin D1 (CS2978, rabbit, 1:1000), or Actin (Sigma A2228, mouse, 1:10,000 or CS8457, rabbit, 1:2000) primary antibodies in TBST-5% BSA solution. Membranes were washed in TBS-T, incubated for one-hour in HRP-linked anti-rabbit or anti-mouse secondary antibodies in TBST-5% milk, and washed in TBS-T. Bands were developed using west-pico or west-femto chemiluminescent substrate reagents.

[4] = tested on: MDAMB231 cells; assay: Crystal violet (CV) proliferation assay, MDAMB231; format: cell-based; settings: MDAMB231 (PKCß1 high, Rb positive), 2000 cells
Method: as §1, with “One thousand cells per well were plated in 96 well tissue culture plates and treated the following day with a bifunctional compound or control for 7 days in replicates of 8.” left out

[5] = tested on: BT549 cells; assay: Crystal violet (CV) proliferation assay, BT549; format: cell-based; settings: BT549 (PKCß1 high, Rb negative), 2000 cells
Method: as §1, with “One thousand cells per well were plated in 96 well tissue culture plates and treated the following day with a bifunctional compound or control for 7 days in replicates of 8.” left out

[6] = tested on: MDAMB436 cells; assay: Crystal violet (CV) proliferation assay, MDAMB436; format: cell-based; settings: MDAMB436 (PKCß1 low, Rb negative), 2000 cells
Method: as §1, with “One thousand cells per well were plated in 96 well tissue culture plates and treated the following day with a bifunctional compound or control for 7 days in replicates of 8.” left out

[7] = tested on: MDAH-2774 cells; assay: CV proliferation assay, MDAH-2774 ovarian cancer cells; format: cell-based; settings: MDAH-2774 (PKCß1 high), 1000 cells/well
Method: as §1
(§2) Based on the potent anti-proliferative activity of ENDX-PROTACs TC-Pr-006, TC-Pr-007, TC-Pr -008, and TC-Pr -009 in TNBC cells, the efficacy of these compounds for inhibiting the growth of ovarian cancer cells was tested. This analysis utilized KURAMOCHI cells, which represent the high-grade serous subtype (the most malignant form that accounts for 70% of all ovarian cancers and associates with poor clinical outcome) and MDAH-2774 cells, which represent endometrioid ovarian cancer and accounts for 20% of all ovarian cancer. PKCβ1 was confirmed to be expressed in both ovarian cancer cell line models, with MDAH-2774 cells expressing higher amounts of PKCβ1 compared to KURAMOCHI cells (FIG. 5A).

[8] = tested on: KURAMOCHI cells; assay: CV proliferation assay, KURAMOCHI ovarian cancer cells; format: cell-based; settings: KURAMOSHI (PKCß1 low), 1000 cells/well
Method: as §1, §2

[9] = target: T1, PKCβ1 (Homo sapiens, UniProt P05771); assay: Western blot, PKCβ1 expression in MCF7AC1 cells; format: cell-based; settings: 1 μM, within 72 hours, drugs replenished every 24 hours
T1 construct: western blots showing expression of PKCβ1 in MCF7AC1 cells treated with 1 μM concentration of the ENDX-PROTACs or ENDX; endogenous in cells; host or cells: MCF7AC1 (ER+ breast cancer cells)
T1 sequence (P05771 whole entry): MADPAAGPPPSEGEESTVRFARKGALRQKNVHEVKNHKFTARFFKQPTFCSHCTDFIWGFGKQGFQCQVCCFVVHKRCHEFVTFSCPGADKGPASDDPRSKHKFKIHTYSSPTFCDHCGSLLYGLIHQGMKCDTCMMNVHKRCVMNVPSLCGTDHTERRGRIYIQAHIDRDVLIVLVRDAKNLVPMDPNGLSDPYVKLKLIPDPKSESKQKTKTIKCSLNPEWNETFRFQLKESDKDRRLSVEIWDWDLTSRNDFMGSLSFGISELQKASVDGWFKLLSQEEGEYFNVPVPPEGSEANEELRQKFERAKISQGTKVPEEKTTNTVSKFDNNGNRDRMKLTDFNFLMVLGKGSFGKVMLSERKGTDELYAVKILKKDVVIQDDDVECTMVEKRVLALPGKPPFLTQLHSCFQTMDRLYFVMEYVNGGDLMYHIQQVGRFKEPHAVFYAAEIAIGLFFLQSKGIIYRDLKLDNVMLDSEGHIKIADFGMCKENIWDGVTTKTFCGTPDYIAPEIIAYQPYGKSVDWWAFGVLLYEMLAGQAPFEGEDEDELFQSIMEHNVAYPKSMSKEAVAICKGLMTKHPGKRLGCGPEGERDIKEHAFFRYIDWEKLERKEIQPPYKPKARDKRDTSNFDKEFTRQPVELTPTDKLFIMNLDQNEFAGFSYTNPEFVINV
Method: For western blotting analysis, cells were treated with vehicle (DMSO) or 1 μM of the indicated ENDX-PROTAC's or parent drug ENDX for 24, 48 and 72 hours with the drugs replenished every 24 hours. 25 μg of protein lysates were run on 10% Bis-Tris XT Criterion precast SDS-PAGE gels and transferred on to PVDF membrane. Following blocking with TB ST-5% milk, the membranes were probed with primary antibodies (1:500 — 1:2000 dilutions) for PKCβ1 (Abcam #136917), ERα (SC #8002), E2F1 (SC #251) and Actin (CS#8457) in TBST-5% BSA and secondary antibodies (1:2000 dilution) in TBST-5% milk. Membranes were developed using chemiluminescent WestPico or WestFemto detection solutions on the Li-Cor Imaging system.

[10] = Pharmacokinetics in mice, plasma by UPLC-MS/MS; format: in vivo, female CD1 mice; settings: for Concentration ENDX PROTAC 9: PO 10 mg/kg, mouse plasma, individual samples
Method: ENDX PROTAC 7 and PROTAC 9 pharmacokinetics were characterized in female CD1 mice. Blood samples were collected from mice anesthetized under isoflurane via retro-orbital eye bleed into tubes containing EDTA and immediately chilled on ice. NaF was added to the EDTA collection tubes to help stabilize the drug in whole blood for the second IV and IP studies with ENDX PROTAC 9, and for the IV and oral studies with PROTAC 7. Plasma and red blood cells were separated immediately by centrifugation in a refrigerated centrifuge at 4° C. The plasma was transferred to a separate tube and immediately frozen at −20° C.
For IV dosing, ENDX PROTAC 9 was dissolved in 10% DMSO, 10% PEG 400, and 80% normal saline for a final concentration of 0.2 mg/mL ENDX PROTAC 9 for the 1 mg/kg IV doses. ENDX PROAC 7 was dissolved in 15% DMSO, 9.44% PEG400, and […] normal saline for a final concentration of 0.19 mg/mL for the 1 mg/kg IV doses. Blood samples (3 mice per time-point) were collected 5 minutes, 15 minutes, 0.5 hour, 1 hour, 2 hours, 4 hours, 8 hours, and 24 hours after administration of the ENDX PROTAC. A second IV study was performed for ENDX PROTAC 9 in which blood samples (3 mice per time-point) were collected 5 minutes, 15 minutes, 1 hour, and 2 hours after administration of ENDX PROTAC 9. For oral dosing, ENDX PROTAC 9 (10 mg/kg) and ENDX PROTAC 7 (10 mg/kg) were suspended in 1 mM ascorbic acid:PEG400, 1:1 v/v for a final concentration of 1.0 mg/mL ENDX PROTAC. Blood samples (three mice per time-point) were collected 15 minutes, 0.5 hour, 1 hour, 2 hours, 4 hours, 6 hours, 8 hours, and 24 hours after administering the ENDX PROTAC. For LP. dosing, ENDX PROTAC 9 (4 mg/kg) was prepared in 1 mM ascorbic acid:PEG400, 1:1 v/v for a final concentration of 0.4 mg/mL ENDX PROTAC 9. Blood samples (three mice per time-point) were collected 15 minutes, 0.5 hour, 1 hour, 2 hours, 4 hours, 6 hours, 8 hours, and 24 hours after administration. Plasma concentrations of ENDX PROTAC 7 and 9 were measured using UPLC-MS/MS.

SMILES: CC/C(=C(\c1ccc(O)cc1)c1ccc(OCCN(C)C(=O)COCCOCCN(C)C(=O)Cc2ccc3c(c2)CN(C2CCC(=O)NC2=O)C3=O)cc1)c1ccccc1 (stereo not shown) [Pr-9-1]
inhibition of growth of ER+ MCF7AC1 cells [1]: inhibited growth of ER+ MCF7AC1 cells | inhibition of growth of TNBC cells [2]: did not inhibit growth of MDAMB231, BT549, or MDAMB436 TNBC cells as effectively | impact on PKCβ1, E2F1, and Cyclin D1 protein expression [3]: lack of impact

SMILES: CC/C(=C(\c1ccc(O)cc1)c1ccc(OCCN(C)C(=O)COCCO[C@@H]2CCN(C(=O)Cc3ccc4c(c3)CN(C3CCC(=O)NC3=O)C4=O)C2)cc1)c1ccccc1 (stereo partly shown) [Pr-9-4]
inhibition of growth of ER+ MCF7AC1 cells [1]: inhibited growth of ER+ MCF7AC1 cells | inhibition of growth of TNBC cells [2]: did not inhibit growth of MDAMB231, BT549, or MDAMB436 TNBC cells as effectively | impact on PKCβ1, E2F1, and Cyclin D1 protein expression [3]: lack of impact

SMILES: CC/C(=C(\c1ccc(O)cc1)c1ccc(OCCN(C)C(=O)COCCNC(=O)c2cccc3c2CN([C@H]2CCC(=O)NC2=O)C3=O)cc1)c1ccccc1 [TC-Pr-001]
IC50 (result in words) [4]: No major killing | IC50 (result in words) [5]: No major killing | IC50 [6]: 10000 nM

SMILES: CC/C(=C(\c1ccc(O)cc1)c1ccc(OCCN(C)C(=O)CCOCCNC(=O)c2cccc3c2CN([C@H]2CCC(=O)NC2=O)C3=O)cc1)c1ccccc1 [TC-Pr-002]
IC50 (result in words) [4]: No major killing | IC50 (result in words) [5]: No major killing | IC50 (result in words) [6]: No major killing

SMILES: CC/C(=C(\c1ccc(O)cc1)c1ccc(OCCN(C)C(=O)COCCOCCNC(=O)c2cccc3c2CN([C@H]2CCC(=O)NC2=O)C3=O)cc1)c1ccccc1 [TC-Pr-003]
IC50 (result in words) [4]: No major killing | IC50 (result in words) [5]: No major killing | IC50 (result in words) [6]: No major killing | Approximate IC50 (result in words) [7]: No killing | Approximate IC50 (result in words) [8]: No killing

SMILES: CC/C(=C(\c1ccc(O)cc1)c1ccc(OCCN(C)C(=O)COCCNC(=O)c2ccc3c(c2)CN([C@H]2CCC(=O)NC2=O)C3=O)cc1)c1ccccc1 [TC-Pr-004]
IC50 (result in words) [4]: No major killing | IC50 (result in words) [5]: No major killing, | IC50 [6]: 10000 nM

More lines, main results first:

IC50 [4]: > 10000 nM | IC50 [5]: > 10000 nM | IC50 [6]: 100 to 1000 nM
SMILES: CC/C(=C(\c1ccc(O)cc1)c1ccc(OCCN(C)C(=O)CCOCCNC(=O)c2ccc3c(c2)CN([C@H]2CCC(=O)NC2=O)C3=O)cc1)c1ccccc1 [TC-Pr-005]

IC50 [4]: 532 nM | IC50 [5]: 482 nM | IC50 [6]: 333 nM | IC50 ([7]; read-out: Approximate IC50): > 10000 nM | IC50 ([8]; read-out: Approximate IC50): > 10000 nM
SMILES: CC/C(=C(\c1ccc(O)cc1)c1ccc(OCCN(C)C(=O)COCCOCCNC(=O)c2ccc3c(c2)CN([C@H]2CCC(=O)NC2=O)C3=O)cc1)c1ccccc1 [TC-Pr-006]

IC50 [4]: 131 nM | IC50 [5]: 225 nM | IC50 [6]: 74 nM | PKCβ1 polypeptide degradation [9]: rapidly degraded PKCβ1 polypeptides
SMILES: CC/C(=C(\c1ccc(O)cc1)c1ccc(OCCN(C)C(=O)CCOCCNC(=O)Cc2ccc3c(c2)CN([C@H]2CCC(=O)NC2=O)C3=O)cc1)c1ccccc1 [TC-Pr-008]
induction of apoptosis [2]: induced apoptosis

Concentration ENDX PROTAC 9 ([10]; 120 minutes, listed as ENDX PROTAC 9, 10 mg/kg): BLD* | Concentration ENDX PROTAC 9 ([10]; 360 minutes, listed as ENDX PROTAC 9, 10 mg/kg): BLD | Concentration ENDX PROTAC 9 ([10]; 480 minutes, listed as ENDX PROTAC 9, 10 mg/kg): BLD | Concentration ENDX PROTAC 9 ([10]; 1440 minutes): BLD | time of peak plasma concentration ([10]; mice, I.V. 1 mg/kg, second study, NaF added to EDTA tubes): 5 min | stability in whole blood ([10]; mouse whole blood, comparison of IV studies with and without NaF): unstable in whole blood | PKCβ1 polypeptide degradation [9]: rapidly degraded PKCβ1 polypeptides
SMILES: CCC(=C(c1ccc(O)cc1)c1ccc(OCCN(C)C(=O)COCCOCCNC(=O)Cc2ccc3c(c2)CN(C2CCC(=O)NC2=O)C3=O)cc1)c1ccccc1 (stereo not shown) [TC-Pr-009, 2-[2-(2-2-[2-(2,6-dioxopiperidin-3-yl)-1-oxo-2,3-dihydro-1H-isoindo1-5-yl]acetamidoethoxy)ethoxy]-N-(2-4-[1-(4-hydroxyphenyl)-2-phenylbut-1-en-1-yl]phenoxyethyl)-N-methylacetamide]
induction of apoptosis [2]: induced apoptosis | PKCβ1 protein levels [3]: altered to varying extent | protein levels of E2F1 and Cyclin D1 ([3]; listed as Pr-9): clearly reduced by 48 hours; also recorded: reduced protein levels
